{"source": "patent US20190374478A1", "about": "“Ultrastable Gold Nanoparticles For Drug Delivery Applications And Synthesis Thereof” (Université Laval, priority 2016, published 2019)", "key": {"[1]": {"assay": "Encapsulation efficiency (indirect assay, magnetic bead removal, UV-visible/HPLC of supernatant)", "assay_type": "physicochemical", "details": "69 nM AuNPs", "description": "The AuNPs and the drug are brought into contact in a screw-cap 2 mL microtube, with magnetic bar stirring, at 37° C. for a time determined according to the kinetics of encapsulation obtained by UV-visible spectroscopy.\nIn the case of travoprost, an encapsulation time of five days was chosen according to the encapsulation kinetics determined by UV spectroscopy at 278 nm (FIG. 9).\nThe method used to determine the encapsulation efficiency rely on an indirect assay by evaluating what has not been encapsulated. Once the encapsulation is complete, the entire mixture is brought into contact with magnetic beads to allow the nanoparticles that contain the encapsulated drug to be removed from the medium. The residual supernatant is then analyzed by UV-visible spectroscopy and high-performance liquid chromatography (HPLC).\nTo do so, a solution of 0.0005% phosphate buffered saline Tween™ (PBS-T) was prepared. The magnetic beads were then cleaned and 100 μL of magnetic beads were placed in a 1.5 mL microtube. The beads were then magnetized, and the supernatant was removed.\n1 mL of the prepared PBS-T was added to the beads, the beads were then suspended with a vigorous vortex for 30 seconds. The beads were then magnetized, and the supernatant was removed. […]\nThe final supernatant was analyzed by UV-Visible spectroscopy (λ=200-700 nm) and by high-performance liquid chromatography (HPLC)."}, "[2]": {"tested_on": "intraocular pressure in glaucomatous mice", "assay": "Intraocular pressure in microbead-induced hypertensive glaucoma model", "assay_type": "in vivo, C57BL/6J mice", "description": "An in vivo glaucoma model involving the injection of exogenous microbeads into the anterior chamber was used (FIG. 17A). The injected beads partially block the trabecular meshwork resulting in intraocular pressure (IOP) elevation while causing no damage to the site of drug action. Two-month-old C57BL/6J mice were used. The IOP was followed with a tonometer (Tonolab®) specially designed for rodents. Animals were injected with 5 μL of microbeads with a dimeter of about 10 μm (7.2×10^6 microbeads/mL) in the anterior chamber of the left eye. For the encapsulation experiments, travoprost was solubilized in water/ethanol (50/50) in the presence of AuNPs. The solution was heated (65° C.) in order to evaporate the ethanol and to induce conformational changes of PEG molecules leading to a better encapsulation. The solution was thus completed with water until the initial volume. Hypertensive glaucoma was induced in adult C57BL/6 mice by injecting 5 μL of polystyrene microbeads (35,000 microbeads) with an average diameter of 10 μm in the anterior chamber of the eye. The dispersion of the microbeads at the level of the iridocorneal angle blocks the passage of the aqueous humor towards the trabecular meshwork (FIG. 17A). Mechanically, the decrease in drainage of the aqueous humor produces an increase in intraocular pressure which is measured with a tonometer of the Tonolab brand. […]"}}, "data": [{"smiles": "CC(C)OC(=O)CCC/C=C\\C[C@@H]1[C@@H](/C=C/[C@@H](O)COc2cccc(C(F)(F)F)c2)[C@H](O)C[C@@H]1O", "note": "[travoprost]", "values": [{"measurement": "Percentage of encapsulated travoprost", "setting": "[1]; initial 80 μM travoprost", "value": "about 68.52%±4.032"}, {"measurement": "Percentage of encapsulated travoprost", "setting": "[1]; initial 120 μM travoprost", "value": "about 67.98%±3.877"}, {"measurement": "Level of intraocular pressure after 24 hours", "setting": "[2]; 24 hours after single topical application", "value": "returned to a high level, similar to that before treatment"}, {"measurement": "Effect on intraocular pressure", "setting": "[2]; single topical application, glaucomatous mice", "value": "significantly but transiently decreased"}]}]}
